{"source": "patent US10434135B2", "about": "“Pharmaceutical composition for preventing or treating arthritis” (Samsung Life Public Welfare Foundation, priority 2015, dated 2019)", "conditions": "rat, in vivo", "description": "The stained samples were examined under a fluorescence microscope (Eclipse TE2000U) at 200× magnification and photographed from 4 randomly selected areas. Then, the images with specific expressions were processed using the imageJ program and then quantified.", "note": "Ends that are not written are not given here.", "data": [{"sequence": "KLDLKLDLKLDLRPKPQQFFGLM [KLD12-SP]", "values": [{"measurement": "substance P retained in the knee joints", "value": "retained in the knee joints of rats"}]}]}
